Laboratory results published in patent US8404279B2, “Method for improving the bud quality of a plant” (Bayer CropScience AG, priority 2007, dated 2013).
Like-named read-outs stand apart in the source and are kept apart here. Marks after values point to notes of the source that are not given here.

Tests used:
[1] = tested on: pear trees (Conference cultivar); settings: plot treated at 3.75 kg/ha, 2004 treatments
Excerpt: (§1) During the 2004 trial, three products were compared in an arbitrary block design with 10 trees per plot in four repeats: the observations were made on the 8 trees inside the plot. […] The applications were in the post-flower period at an interval of 10 days.
(§2) In 2005, the same applications were repeated on the same trees.

[2] = tested on: pear trees (Conference cultivar); assay: Productivity of the pear trees after the treatments (field trial); assay type: in vivo; settings: 2006, treated 2004 and 2005
Procedure: (§3) During three consecutive years 2004, 2005 and 2006, a trial was carried out on young pear trees of the Conference cultivar on a Quince Adams stock. The pear trees of this orchard were planted in 1999 according to the system of a single row at a planting distance of 3.5 m between the rows and 1.5 m in the row with a tree height of 3 m.
as §1, §2
(§4) After one year during flowering, the effect of the treatments on the quality of the flower bud was evaluated. Statistical analysis of the various parameters is performed (Unistat Statistical Package, Version 5.5). The original or processed data are analyzed according to the General Linear Model and the treatment means are separated in a standard manner using the Duncan multiple classification test (5% level).

[3] = flower buds 2006; for Fosetyl-Al residue: 10 days
Excerpt: In 2006, the magnitude of the levels of fosetyl-Al and phosphorous acid residues in the developing flower buds was monitored on three plots: in the control untreated plot, in the plot treated with fosetyl-Al based on 3×3.75 kg/ha (application on 18/05, 30/05 and 08/06) and in the plot treated with fosetyl-Al based on 6×2.0 kg/ha (application on 18/05, 30/05, 08/06, 19/06, 29/06 and 10/07).
On each date (with the exception of the first sampling date), 40 flower buds with their surrounding leaves were gathered. On the first sampling date, 40 flower buds were gathered without leaves.
The flower bud samples were taken before the next treatment on the following dates: 30/05, 08/06, 19/06, 28/06, 10/07 and 28/08. For the two fosetyl-Al and phosphorous acid products, the levels of residues in the flower buds were determined with the aid of an LC-MS-MS analytical method. The limit of quantification (LOQ) was 0.1 mg/kg for fosetyl-Al, 2 mg/kg for phosphorous acid and 3 mg/kg for the total residue expressed as fosetyl-Al equivalent. The total residue is the sum of the residues derived from fosetyl-Al and phosphorous acid expressed as fosetyl-Al equivalent.
The results are calculated according to the following formula:
[formula] in which: • Mfosetyl-Al represents the molecular weight of fosetyl-Al: 354.1 g/mol • Mphosphorous acid represents the molecular mass of phosphorous acid: 82 g/mol; multiplied by 3, since 1 mol of fosetyl-Al corresponds to 3 mol of phosphorous acid.
For the pear bud samples, the fosetyl-Al and phosphorous acid residues are extracted with the aid of an acetonitrile/water (50:50, v/v) mixture. After centrifugation and dilution of the sampling material, the residues are quantified by HPLC and detected by tandem mass spectrometry with electrospray ionization. The quantification is performed by external standardization. The statistical analysis is performed per parameter on the complete set of data for the different sampling dates.

[4] = tested on: flower bud dieback on pear trees (Conference variety); assay: Flower bud quality field trial against flower bud dieback on young pear trees; assay type: in vivo, pear trees (Conference cultivar); settings: for Good quality buds (%) 1 yw S: 1-year old wood side position; for Good quality buds (%) 1 yw S / Good quality buds (%) 1 yw T / Good quality buds (%) 2 yw / Good quality buds (%) Per tree: treated 2004 and 2005, 2006 flower buds; for Good quality buds (%) 1 yw T: 1-year old wood terminal position; for Good quality buds (%) 2 yw: 2-year old wood
Procedure: as §3, §1, §2
In 2006, the complete trial was repeated on new trees in the same orchard. The fosetyl-Al doses varying between 2 and 3.75 kg/ha of standard orchard (corresponding to doses varying from 1.33 to 2.50 kg/ha of foliar surface area) were applied in the post-flower period during the months of May and June at an interval of 5 or 10 days between the treatments. Benzothiadiazole applied at a dose of 200 g/ha of standard orchard (corresponding to a dose of 133 g/ha of foliar surface area) was included as reference product in order to induce plant defense reactions by the trees.
as §4

[5] = 3 x 3.75 kg/ha May interval 10 + 3 x 3.75 kg/ha June interval 14, object excluded from statistical analysis
[6] = 3 x 3.75 kg/ha May, interval 10
[7] = 3 x 3.75 kg/ha May, primary efflorescence
[8] = 3 x 3.75 kg/ha May interval 10 + 3 x 3.75 kg/ha June interval 14
[9] = treated 2004, 2005 flower buds, 3 x 3.75 kg/ha May interval 10 + 1 x 3.75 kg/ha AH
[10] = treated 2004, 2005 flower buds, 3 x 3.75 kg/ha May interval 10 + 3 x 3.75 kg/ha June interval 14
[11] = treated 2004, 2005 flower buds, 3 x 3.75 kg/ha May, interval 10
[12] = treated 2006, 2007 flower buds, 3 x 3.75 kg/ha June, interval 10
[13] = treated 2006, 2007 flower buds, 3 x 3.75 kg/ha May, interval 10
[14] = treated 2006, 2007 flower buds, 6 x 2 kg/ha June, interval 5
[15] = treated 2006, 2007 flower buds, 6 x 2 kg/ha May, interval 5
[16] = treated 2006, 2007 flower buds, 6 x 2 kg/ha May-June, interval 10

CCO[PH](=O)O.[Al] [Fosetyl-Al, aluminum ethyl hydrogen phosphonate]
phytotoxicity [1]: absence of phytotoxicity | Average weight (g) [2, 5]: 137.9* g | Number of fruits/tree [2, 5]: 152.2* fruits/tree | Productivity (kg/tree) [2, 5]: 21* kg/tree | Average weight [2, 6]: 144.8 g | Number of fruits/tree [2, 6]: 148.8 fruits/tree | Productivity (kg/tree) [2, 6]: 21.5 kg/tree | Average weight [2, 7]: 157.7 g | Number of fruits/tree [2, 7]: 140.4 fruits/tree | Productivity (kg/tree) [2, 7]: 22.1 kg/tree | time the level of fosetyl-Al residue was maintained after the last treatment ([3]; dose of 3.75 kg/ha): approximately 4 weeks | Fosetyl-Al residue ([3]; fosetyl-Al 3 x 3.75 kg/ha May, sampling 08/06): 12.92 mg/kg | Fosetyl-Al residue ([3]; fosetyl-Al 3 x 3.75 kg/ha May, sampling 10/07): 2.14 mg/kg | Fosetyl-Al residue ([3]; fosetyl-Al 3 x 3.75 kg/ha May, sampling 19/06): 10.65 mg/kg | Fosetyl-Al residue ([3]; fosetyl-Al 3 x 3.75 kg/ha May, sampling 28/06): 10.83 mg/kg | Fosetyl-Al residue ([3]; fosetyl-Al 3 x 3.75 kg/ha May, sampling 28/08): 0.11 mg/kg | Fosetyl-Al residue ([3]; fosetyl-Al 3 x 3.75 kg/ha May, sampling 30/05): 0.1 mg/kg | Fosetyl-Al residue ([3]; fosetyl-Al 6 x 2 kg/ha May-June, sampling 08/06): 10.64 mg/kg | Fosetyl-Al residue ([3]; fosetyl-Al 6 x 2 kg/ha May-June, sampling 10/07): 2.86 mg/kg | Fosetyl-Al residue ([3]; fosetyl-Al 6 x 2 kg/ha May-June, sampling 19/06): 4.52 mg/kg | Fosetyl-Al residue ([3]; fosetyl-Al 6 x 2 kg/ha May-June, sampling 28/06): 20.56 mg/kg | Fosetyl-Al residue ([3]; fosetyl-Al 6 x 2 kg/ha May-June, sampling 28/08): 0.18 mg/kg | Fosetyl-Al residue ([3]; fosetyl-Al 6 x 2 kg/ha May-June, sampling 30/05): 0.1 mg/kg | Good quality buds (%) 1 yw S [4, 8]: 68.4% | Good quality buds (%) 1 yw S [4, 6]: 56.5% | Good quality buds (%) 1 yw S [4, 7]: 69.8% | Good quality buds (%) 1 yw T [4, 8]: 97.2% | Good quality buds (%) 1 yw T [4, 6]: 82.7% | Good quality buds (%) 1 yw T [4, 7]: 90.2% | Good quality buds (%) 2 yw [4, 8]: 86.1% | Good quality buds (%) 2 yw [4, 6]: 75.1% | Good quality buds (%) 2 yw [4, 7]: 68.2% | flower bud quality with an additional treatment after harvesting versus post-flower treatments alone ([4]; 2004 treatments, 2005 buds): results comparable | Buds of good quality [4, 9]: 88.3% | Number of incomplete buds/tree [4, 9]: 9.2 buds/tree | Buds of good quality [4, 10]: 89.3% | Number of incomplete buds/tree [4, 10]: 7.9 buds/tree | Buds of good quality [4, 11]: 88.4% | Number of incomplete buds/tree [4, 11]: 7.9 buds/tree | Good quality buds (%) Per tree [4, 8]: 92.3% | Good quality buds (%) Per tree ([4]; 3 x 3.75 kg/ha May interval 10 + 3 x 3.75 kg/ha June interval 14, listed as fosetyl-Al): 92% | Good quality buds (%) Per tree [4, 6]: 85.9% | Good quality buds (%) Per tree ([4]; 3 x 3.75 kg/ha May, interval 10, listed as fosetyl-Al): 86% | Good quality buds (%) Per tree [4, 7]: 75.4% | Good quality buds (%) Per tree ([4]; 3 x 3.75 kg/ha May, primary efflorescence, listed as fosetyl-Al): 75% | percentages of flower buds that have died back or that are incomplete ([4]; treated 2006, 2007 buds, all objects treated with fosetyl-Al): significantly reduced | Buds that have died back (%) [4, 12]: 31.6% | Good quality buds (%) [4, 12]: 62.5% | Number of incomplete buds/tree [4, 12]: 5.9 buds/tree | Buds that have died back (%) [4, 13]: 33.4% | Good quality buds (%) [4, 13]: 59.3% | Number of incomplete buds/tree [4, 13]: 7.2 buds/tree | Good quality buds (%) ([4]; treated 2006, 2007 flower buds, 3 x 3.75 kg/ha May, interval 10, listed as fosetyl-Al): 59% | Buds that have died back (%) [4, 14]: 31.5% | Good quality buds (%) [4, 14]: 63.5% | Number of incomplete buds/tree [4, 14]: 5 buds/tree | Buds that have died back (%) [4, 15]: 33% | Good quality buds (%) [4, 15]: 59.6% | Number of incomplete buds/tree [4, 15]: 7.4 buds/tree | Good quality buds (%) ([4]; treated 2006, 2007 flower buds, 6 x 2 kg/ha May, interval 5, listed as fosetyl-Al): 59% | Buds that have died back (%) [4, 16]: 33.9% | Good quality buds (%) [4, 16]: 61.2% | Number of incomplete buds/tree [4, 16]: 4.9 buds/tree
